According to paper PMC6941124 (International Journal of Molecular Sciences, 2019):
Substitutions are numbered along the chain they refer to.

What was measured:
Type in all cases: biochemical
Conditions in all cases: inhibitor at IC50 concentration previously determined for CK1δ WT; DMSO control = 100%; adjusted to WT = 50%; mean ± SD
CK1δ Q399* = target: T1, CK1δ Q399* (Homo sapiens, UniProt P48730); assay: in vitro kinase assay, CK1δ mutant Q399*
T1 sequence (P48730 1-398): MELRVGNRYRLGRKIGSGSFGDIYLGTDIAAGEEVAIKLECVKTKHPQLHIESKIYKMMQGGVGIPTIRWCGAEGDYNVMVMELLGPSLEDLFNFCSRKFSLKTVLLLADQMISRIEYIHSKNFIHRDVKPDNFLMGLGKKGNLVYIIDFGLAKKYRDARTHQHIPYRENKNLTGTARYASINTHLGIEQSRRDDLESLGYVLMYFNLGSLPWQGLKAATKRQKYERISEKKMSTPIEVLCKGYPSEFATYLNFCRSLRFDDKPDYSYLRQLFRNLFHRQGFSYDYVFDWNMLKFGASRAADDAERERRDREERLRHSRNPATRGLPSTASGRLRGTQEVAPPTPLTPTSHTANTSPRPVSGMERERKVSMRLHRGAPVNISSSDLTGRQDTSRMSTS
Protocol: (§1) Overexpression and purification of GST-CK1δ fusion proteins, either wild type or mutant, were performed as described previously.
(§2) Each kinase assay reaction was performed in kinase buffer (25 mM Tris-HCl (pH 7.5), 10 μM ATP, 10 mM MgCl2, 100 μM EDTA) in presence of purified GST-CK1δ kinase as source of enzyme (either wild type or mutant), an assay-specific substrate (α-casein, GST-p53^1−64, or GST-β-catenin^1−181), and radiolabeled ATP (2 μCi [γ-^32P]-ATP). For performing Michaelis–Menten analysis increasing substrate concentrations were used (α-casein: 0.39−25 μM; GST-p53^1−64: 0.09−1.87 μM; GST-β-catenin^1−181: 0.07−1.32 μM). For biological evaluation of small molecule inhibitors (SMIs), each inhibitor compound was either tested at 10 μM concentration for initial screening or by using a dilution series (0.005−10 µM) for determination of IC50 values. DMSO was used as control. Reactions were incubated for 30 min at 30 °C and reactions were stopped using 5x SDS-loading buffer (250 mM Tris-HCl [pH 6.8], 25% (v/v) β-mercaptoethanol (MSH), 50% (v/v) glycerol, 10% (w/v) SDS, 0.5% (w/v) bromphenol blue). Subsequently, samples were separated by SDS-PAGE using 12.5% acrylamide gels, stained with Coomassie, and phosphorylated substrates were visualized on X-ray film. Incorporation of radiolabeled phosphate was quantified by scintillation counting of Coomassie-stained substrate bands. Defined dilutions of the reaction master mix were counted as well in order to convert results obtained as counts per minute (CPM) to units of transferred phosphate in pmol/min. Michaelis–Menten analysis was performed using GraphPad Prism 6 (GraphPad Software, San Diego, CA, USA).

CK1δ R127Q = target: T2, CK1δ R127Q (Homo sapiens, UniProt P48730, R127Q); assay: in vitro kinase assay, CK1δ mutant R127Q
T2 sequence (P48730 1-415 R127Q): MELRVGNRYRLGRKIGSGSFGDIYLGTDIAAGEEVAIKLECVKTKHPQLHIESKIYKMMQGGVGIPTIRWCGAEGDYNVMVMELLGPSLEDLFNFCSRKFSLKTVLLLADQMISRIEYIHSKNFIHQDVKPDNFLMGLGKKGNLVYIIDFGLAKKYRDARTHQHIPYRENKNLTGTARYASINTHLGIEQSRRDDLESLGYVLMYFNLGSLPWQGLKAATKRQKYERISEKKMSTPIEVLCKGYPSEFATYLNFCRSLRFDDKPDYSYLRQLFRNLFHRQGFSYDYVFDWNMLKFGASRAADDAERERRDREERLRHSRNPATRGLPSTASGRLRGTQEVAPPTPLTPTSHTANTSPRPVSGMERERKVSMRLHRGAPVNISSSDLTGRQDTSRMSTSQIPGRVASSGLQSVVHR
Protocol: as §1, §2

CK1δ A36V = target: T3, CK1δ A36V (Homo sapiens, UniProt P48730, A36V); assay: in vitro kinase assay, CK1δ mutant A36V
T3 sequence (P48730 1-415 A36V): T2 sequence (P48730 1-415 R127Q) with A36V, Q127R
Protocol: as §1, §2

CK1δ R115H = target: T4, CK1δ R115H (Homo sapiens, UniProt P48730, R115H); assay: in vitro kinase assay, CK1δ mutant R115H
T4 sequence (P48730 1-415 R115H): T2 sequence (P48730 1-415 R127Q) with R115H, Q127R
Protocol: as §1, §2

CK1δ R168H = target: T5, CK1δ R168H (Homo sapiens, UniProt P48730, R168H); assay: in vitro kinase assay, CK1δ mutant R168H
T5 sequence (P48730 1-415 R168H): T2 sequence (P48730 1-415 R127Q) with Q127R, R168H
Protocol: as §1, §2

| Structure (SMILES) | Residual activity of CK1δ Q399* (CK1δ Q399*) [%] | Residual activity of CK1δ R127Q (CK1δ R127Q) [%] | Residual activity of CK1δ A36V (CK1δ A36V) [%] | Residual activity of CK1δ R115H (CK1δ R115H) [%] | Residual activity of CK1δ R168H (CK1δ R168H) [%] |
| --- | --- | --- | --- | --- | --- |
| O=C(Nc1nc2ccc(C(F)(F)F)cc2[nH]1)c1csc(NC(=O)c2ccccc2OC(F)(F)F)n1 [Bischof-5] | 75 ± 30 | 24 ± 8 | 43 ± 15 | 36 ± 10 | 30 ± 16 |
| Cc1ccc2nc(NC(=O)CSc3nc4c(c(=O)n3-c3ccccc3)SCC4)sc2c1 [IWP-2] | 53 ± 27 | 37 ± 5 | 55 ± 6 | 71 ± 34 | 50 ± 9 |
| COc1ccccc1-n1c(SCC(=O)Nc2nc3ccc(C)cc3s2)nc2c(c1=O)SCC2 [IWP-4] | 96 ± 79 | 36 ± 11 | 49 ± 7 | 46 ± 5 | 61 ± 19 |
